Article PMC5514948, “Stereochemical preference toward oncotarget: Design, synthesis and in vitro anticancer evaluation of diastereomeric β-lactams” (Oncotarget, 2017)
“And” between values parts separate entries of the source, which are not always exact repeats. Identical values can stand only once.

How the values were obtained:
[1] = tested on: SiHa (human cervical carcinoma) cells; test: Cytotoxic activity, WST-1 assay, SiHa; assay type: cell-based
Protocol: (§1) In vitro anticancer assays were performed in triplicate for the determination of mean values. The human cervical carcinoma SiHa, murine melanoma B16F10, chronic myelogenous leukemia (CML) K562, and Chang cell lines were cultured in minimum essential medium of Eagle at 37 °C in a […] atmosphere with 10% fetal bovine serum, 2 mM L-glutamine and 1% penicillin/streptomycin. Cells were trypsinized and seeded at a density of 5 × 10^4 cells/mL in a 96-well plate and incubated at 37 °C, […] atmosphere for 24 h. Thereafter the cells were treated with azetidin-2-one derivatives (dissolved in DMSO) at various concentrations between 312 nM–10 μM, and re-incubated for further 72 h. Wells containing the equal volume of the vehicle DMSO (1% v/v) were used as background (negative control). The culture medium was then removed and the cells washed with 100 μL phosphate buffered saline (PBS); then 10 μL WST-1 (Roche, USA) was added. Cells were incubated for 2 h in absence of light at 37°C, and absorbance was read subsequently. […] Afterwards, these values were used to assess half maximal inhibitory concentration (IC50) using Graph-Pad Prism software.

[2] = tested on: B16F10 (murine melanoma) cells; test: Cytotoxic activity, WST-1 assay, B16F10; assay type: cell-based
Protocol: as §1

[3] = tested on: K562 (human immortalized myelogenous leukemia) cells; test: Cytotoxic activity, WST-1 assay, K562; assay type: cell-based
Protocol: as §1

[4] = tested on: Chang (normal liver) cells; test: cells; assay type: cell-based; conditions: 72 h, WST-1, triplicate
Protocol: as §1

[5] = tested on: SiHa cells; test: Hematoxylin/Eosin staining of SiHa cells; assay type: cell-based, human; conditions: 24 h, 6C 1 μM, taxol
Protocol: (§2) The cytotoxic effect of the compound 6C in SiHa and Chang cells has been studied (Figure 2).
(§3) Cells (10 × 10^4) were grown on coated poly-lysine coverslips which were placed in 6-well microplates overnight and then incubated for 24 h in the presence of compound 6C or taxol, subsequently stained with hematoxylin and eosin. Coverslips were then observed by Light microscopy of bright field (40X).

[6] = tested on: Chang cells; test: Hematoxylin/Eosin staining of Chang cells; assay type: cell-based; conditions: 24 h, 6C 1 μM, taxol
Protocol: as §2, §3

[7] = tested on: caspase-3 activation in B16F10 cells; test: Apoptotic activity, caspase-3 assay; assay type: cell-based, murine; conditions: 24 h, podophyllotoxin as positive control
Protocol: The mechanism of cell death was identified as apoptosis. It was validated with the compound 6C. Enzyme activity associated with the induction of apoptosis was determined by caspase-3 assay (Invitrogen, USA) as described in the protocol. A concentration of approximately 3 × 10^6 cells/mL (B16F10) was taken and incubated for 24 h at 37 °C in 5% CO2 environment. Podophyllotoxin (apoptosis inducing agent) was used as positive control. After incubation for 24 h the cells were re-suspended and 50 μL of cell lysis reagent was added, then cells were incubated for 10 min in ice bath and centrifuged. The supernatant (cytosol extract) was transferred into a new effendrof. Cytosol extract was diluted with cell lysis reagent to a concentration of 2 μg/μL, in a total volume of 50 μL. Then 50 μL of 2X reaction buffer and 5 μL of tetrapeptide-p-nitroaniline (DEVD-pNA) were added. It was incubated at 37 °C for 2 h (in dark), and finally the optical density at 405 nm was measured with an ELISA Reader. Caspase-3 activity was calculated that confirmed apoptosis as the mechanism of cell death.

SMILES	IC50 ([1]; 72 h, WST-1, triplicate) [µM]	IC50 ([2]; 72 h, WST-1, triplicate)	IC50 ([3]; 72 h, WST-1, triplicate) [µM]	IC50 [4] [µM]	also measured
COc1ccc([C@@H]2[C@H](N)C(=O)N2c2ccc(OC)cc2)cc1 (racemic) [1C, (±)-Cis-3-amino-1,4-bis(4-methoxyphenyl) azetidin-2-one]	4.21 ± 0.4	3.33 ± 0.3 µM	> 10	6.21 ± 0.5	–
COc1ccc([C@H]2[C@H](N)C(=O)N2c2ccc(OC)cc2)cc1 (racemic) [1T, (±)-Trans-3-amino-1,4-bis(4-methoxyphenyl) azetidin-2-one]	7.17 ± 0.3	5.16 ± 0.5 µM	> 10	7.91 ± 0.4	–
COc1ccc([C@@H]2[C@H](N)C(=O)N2c2ccccc2)cc1 (racemic) [2C, (±)-Cis-3-amino-4-(4-methoxyphenyl)-1-phenyl-azetidin-2-one]	6.2 ± 0.6	–	> 10	8.03 ± 0.5	–
COc1ccc([C@H]2[C@H](N)C(=O)N2c2ccccc2)cc1 (racemic) [2T, (±)-Trans-3-amino-4-(4-methoxyphenyl)-1-phenyl-azetidin-2-one]	7.14 ± 0.5	7.63 ± 0.4 µM	> 10	> 10	–
COc1ccc(N2C(=O)[C@@H](N)[C@H]2c2ccc(OC)c(OC)c2)cc1 (racemic) [3C, (±)-Cis-3-amino-4-(3,4-dimethoxyphenyl)-1-(4-methoxyphenyl) azetidin-2-one]	5.1 ± 0.4	< 5 µM and 3.91 µM	6.14 ± 0.4	9.32 ± 0.6	–
COc1ccc(N2C(=O)[C@@H](N)[C@@H]2c2ccc(OC)c(OC)c2)cc1 (racemic) [3T, (±)-Trans-3-amino-4-(3,4-dimethoxyphenyl)-1-(4-methoxyphenyl) azetidin-2-one]	> 10	> 10 µM	> 10	> 10	–
COc1ccc(N2C(=O)[C@@H](N)[C@H]2c2ccccc2[N+](=O)[O-])cc1 (racemic) [4C, (±)-Cis-3-amino-1-(4-methoxyphenyl)-4-(2-nitrophenyl) azetidin-2-one]	7.28 ± 0.5	5.91 ± 0.6 µM	> 10	7.37 ± 0.4	–
COc1ccc(N2C(=O)[C@@H](N)[C@@H]2c2ccccc2[N+](=O)[O-])cc1 (racemic) [4T, (±)-Trans-3-amino-1-(4-methoxyphenyl)-4-(2-nitrophenyl) azetidin-2-one]	8.12 ± 0.4	> 10 µM	> 10	> 10	–
COc1ccc(N2C(=O)[C@@H](N)[C@H]2c2ccc(C)cc2)cc1 (racemic) [5C, (±)-Cis-3-amino-1-(4-methoxyphenyl)-4-(p-tolyl) azetidin-2-one]	4.03 ± 0.5	–	> 10	7.01 ± 0.1	–
COc1ccc(N2C(=O)[C@@H](N)[C@@H]2c2ccc(C)cc2)cc1 (racemic) [5T, (±)-Trans-3-amino-1-(4-methoxyphenyl)-4-(p-tolyl)azetidin-2-one]	7.79 ± 0.5	7.14 ± 0.6 µM	> 10	> 10	–
Cc1ccc([C@@H]2[C@H](N)C(=O)N2c2ccccc2)cc1 (racemic) [6C, (±)-Cis-3-amino-1-phenyl-4-(p-tolyl) azetidin-2-one]	2.34 ± 0.2	0.7 ± 0.1 µM	> 10	6.89 ± 0.3	times higher potency than colchicine ([2]; B16F10 cell lines, compared to colchicine): six; Morphological effect, Hematoxylin/Eosin staining [5]: loss of cytoplasm and decrease in the size of nuclei; Morphological effect, Hematoxylin/Eosin staining [6]: appearance of multiple intracytoplasmic vacuoles; Apoptosis through caspase-3 activation [7]: demonstrated apoptosis in B16F10 cancer cells through caspase-3 activation
Cc1ccc([C@H]2[C@H](N)C(=O)N2c2ccccc2)cc1 (racemic) [6T, (±)-Trans-3-amino-1-phenyl-4-(p-tolyl)azetidin-2-one]	4.79 ± 0.6	5.79 ± 0.4 µM	> 10	> 10	–
COc1ccc(N2C(=O)[C@@H](N)[C@H]2c2ccccn2)cc1 (racemic) [7C, (±)-Cis-3-amino-1-(4-methoxyphenyl)-4-(2-pyridyl)azetidin-2-one]	8.43 ± 0.3	> 10 µM	6.86 ± 0.4	5.49 ± 0.4	–
COc1ccc(N2C(=O)[C@@H](N)[C@@H]2c2ccccn2)cc1 (racemic) [7T, (±)-Trans-3-amino-1-(4-methoxyphenyl)-4-(2-pyridyl)azetidin-2-one]	> 10	> 10 µM	> 10	> 10	–
CC(=O)O[C@H]1C(=O)[C@@]2(C)[C@H]([C@H](OC(=O)c3ccccc3)[C@]3(O)C[C@H](OC(=O)[C@H](O)[C@@H](NC(=O)c4ccccc4)c4ccccc4)C(C)=C1C3(C)C)[C@]1(OC(C)=O)CO[C@@H]1C[C@@H]2O [Paclitaxel, reference compound]	–	–	–	0.068 ± 0.02	IC50 ([1]; Homo sapiens, SiHa, value marked * (ng/mL)): 0.364 ± 0.31 µg/mL; IC50 ([2]; Mus musculus, B16-F10, 72 h, WST-1, triplicate): 9.57 ± 0.2 µM; IC50 ([3]; Homo sapiens, K562, value marked * (ng/mL)): 0.0048 ± 0.0004 µg/mL; Morphological effect, Hematoxylin/Eosin staining [5]: induced severe cell damage; Morphological effect, Hematoxylin/Eosin staining [6]: early apoptosis
CC[C@]1(O)C[C@@H]2CN(CCc3c([nH]c4ccccc34)[C@@](C(=O)OC)(c3cc4c(cc3OC)N(C)[C@H]3[C@@](O)(C(=O)OC)[C@H](OC(C)=O)[C@]5(CC)C=CCN6CC[C@]43[C@@H]65)C2)C1 [Vinblastine, reference compound]	–	–	–	–	IC50 ([1]; Homo sapiens, SiHa, 72 h, WST-1, triplicate): 10.9 ± 0.8 µM; IC50 ([2]; Mus musculus, B16-F10, value marked * (ng/mL)): 0.055 ± 0.028 µg/mL; IC50 ([3]; Homo sapiens, K562, 72 h, WST-1, triplicate): 0.006 µM
